Measured values reported in US7476672B2, “Acetylenic compounds useful in treating inflammatory disorders” (Janssen Pharmaceutica N.V., priority 2002, dated 2009).
Where a name gives a salt, the structure may show the parent alone.

biological target: T1, NADPH-oxidase (Homo sapiens, UniProt P04839); assay: Oxidase Inhibition Assay (PMA-stimulated superoxide-mediated reduction of Cytochrome c, whole cells); format: cell-based; settings: human neutrophils, PMA 0.5 μM, absorbance at 550 nm
T1 construct: endogenous in cells; host or cells: human neutrophils isolated from buffy coat
T1 sequence (P04839 1-570): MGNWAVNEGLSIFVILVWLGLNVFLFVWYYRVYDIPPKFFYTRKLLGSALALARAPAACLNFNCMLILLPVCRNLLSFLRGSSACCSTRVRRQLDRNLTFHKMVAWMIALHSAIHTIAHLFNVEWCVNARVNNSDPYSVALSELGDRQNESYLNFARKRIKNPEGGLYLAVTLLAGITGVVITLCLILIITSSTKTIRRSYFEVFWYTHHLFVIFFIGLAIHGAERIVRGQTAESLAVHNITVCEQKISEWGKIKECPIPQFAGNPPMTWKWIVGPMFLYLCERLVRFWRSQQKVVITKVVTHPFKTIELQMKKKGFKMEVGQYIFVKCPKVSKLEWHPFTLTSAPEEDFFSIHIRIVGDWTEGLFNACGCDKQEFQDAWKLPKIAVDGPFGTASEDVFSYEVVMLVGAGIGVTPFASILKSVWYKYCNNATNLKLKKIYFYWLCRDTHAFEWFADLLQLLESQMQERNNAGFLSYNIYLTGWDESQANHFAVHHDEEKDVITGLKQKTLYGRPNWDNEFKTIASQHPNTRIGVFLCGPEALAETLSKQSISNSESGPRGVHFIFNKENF
Protocol: Whole cells (human neutrophils) are incubated with a pro-inflammatory agonist phorbol myristate acetate (PMA) in the presence or absence of test compound to measure the superoxide-mediated reduction of Cytochrome c at 550 nm. Inhibition of the oxidase is determined by a decreased absorbance at 550 nm, in response to test compound, relative to the absorbance seen with a vehicle control.
The buffy coat from one unit of blood is split evenly into four 50 mL tubes. To each tube 30 mL 3% Dextran (in 0.9% NaCl) is added and the tubes are inverted to mix. Tubes are allowed to sit undisturbed for 25 minutes. The resulting supernatant is recovered into four fresh tubes and centrifuged for 10 minutes at 600×g, 4° C. The supernatant is discarded and pellets are resuspended in 35 mL 0.9% saline. 10 mL Ficoll-Paque PLUS (Pharmacia Biotech AB) is layered beneath the cell suspension and centrifuged at 600×g for 40 minutes at room temperature. The supernatant is again discarded and tubes are tapped to loosen the resulting pellets. 20 mL 0.2% ice cold saline is added for 30 seconds followed by 20 mL 1.6% ice cold saline to lyse the remaining erythrocytes in the pellets. The pellets are centrifuged for 10 minutes at 600×g, 4° C., and the supernatant is discarded. The neutrophil pellets are resuspended in HBSS-glucose buffer (1 mg/mL), adding 2.5 mL to each tube for a total volume of 10 mL. The cell suspension is then counted on a hemocytometer.
The cell suspension is diluted to a concentration of 5×10^6/mL in HBSS-glucose and treated with 1 μg/mL Cytochalasin B (5 mg/mL DMSO) for 10 minutes at 37° C. in a shaking water bath. Cells are diluted to 6×10^5 cells/mL in 92 μM Cytochrome C for a final concentration of 5×10^4 cells/well.
The NADPH-oxidase assay is run on a Biomek 2000 workstation. The workstation adds 2.5 μL compound per well from source plates plus 12.5 μL per well 4 μM PMA (agonist). This volume is brought up to 100 μL total per well in the assay plates upon the addition of the prepared cells (85 μL). The final concentration of drug is 25 μM and PMA is 0.5 μM under these conditions.
The QC curve is a dose-response curve (from about 31.25 nM to about 4000 nM) for competitive binding against a known oxidase inhibitor such as DPI (diphenylene iodonium chloride). The format used for each compound tested is as follows:
The plates are incubated for 1 hour at 37° C. without CO2. The plates are then incubated at room temperature for 30 minutes and the absorbance is read at 550 nm.

`CCC(COc1ccc(C#Cc2ccc(Cl)cc2)cc1C)NCc1ccc(CN)cc1` (stereo not drawn) [Compound 23, N-[1-[[4-[(4-chlorophenyl)ethynyl]-2-methylphenoxy]methyl]propyl]-1,4-benzenedimethanamine] and `Cc1cc(C#Cc2ccc(Cl)cc2)ccc1OCC(C)NCc1ccc(CN)cc1` (stereo not drawn) [Compound 1, N-[2-[4-[(4-chlorophenyl)ethynyl]-2-methylphenoxy]-1-methylethyl]-1,4-benzenedimethanamine] are within 1.5-fold of each other in IC50: 800 nM for the first, 700 nM for the second.

Going from `CC(COc1ccc(C#Cc2ccc(Cl)cc2)cc1Cl)NCc1ccc(CN)cc1` (stereo not drawn) [Compound 25, N-[2-[2-chloro-4-[(4-chlorophenyl)ethynyl]phenoxy]-1-methylethyl]-1,4-benzenedimethanamine] to `CC(COc1ccc(C#Cc2ccc(F)cc2)cc1Cl)NCc1ccc(CN)cc1` (stereo not drawn) [Compound 26, N-[2-[2-chloro-4-[(4-fluorophenyl)ethynyl]phenoxy]-1-methylethyl]-1,4-benzenedimethanamine], the IC50 rises from 700 nM to 1050 nM (1.5-fold).

First: CCCCCCCNCc1ccc(CNCCOc2ccc(C#Cc3ccc(Cl)cc3)cc2C)cc1 [Compound 9, N^1-[2-[4-[(4-chlorophenyl)ethynyl]-2-methylphenoxy]ethyl]-N^4-heptyl-1,4-benzenedimethanamine]
Second: CCCCCCNCc1ccc(CNCCOc2ccc(C#Cc3ccc(Cl)cc3)cc2C)cc1 [Compound 12, N^1-[2-[4-[(4-chlorophenyl)ethynyl]-2-methylphenoxy]ethyl]-N^4-hexyl-1,4-benzenedimethanamine]
The IC50 of the first is 1.7-fold lower: 6660 nM for the first, 11100 nM for the second. The first is the more potent here.

`Cc1cc(C#Cc2ccc(Cl)cc2)ccc1OCCNCc1ccc(CNCCCOC(=O)C2CCCCN2)cc1` (stereo not drawn) [Compound 18, 3-[[[4-[[[2-[4-[(4-chlorophenyl)ethynyl]-2-methylphenoxy]ethyl]amino]methyl]phenyl]methyl]amino]propyl ester 2-piperidinecarboxylic acid] and `Cc1cc(C#Cc2ccc(Cl)cc2)ccc1OCCNCc1ccc(CNCCN2CCCC2)cc1` [Compound 14, N^1-[2-[4-[(4-chlorophenyl)ethynyl]-2-methylphenoxy]ethyl]-N^4-[2-(1-pyrrolidinyl)ethyl]-1,4-benzenedimethanamine] are within 1.5-fold of each other in IC50: 3010 nM for the first, 2350 nM for the second.

Compared with `CC(C)NCc1ccc(CNCCOc2ccc(C#Cc3ccc(Cl)cc3)cc2)cc1` [Compound 4, N^1-[2-[4-[(4-chlorophenyl)ethynyl]phenoxy]ethyl]-N^4-(1-methylethyl)-1,4-benzenedimethanamine], `CC(C)CCNCc1ccc(CNCCOc2ccc(C#Cc3ccc(Cl)cc3)cc2)cc1` [Compound 5, N^1-[2-[4-[(4-chlorophenyl)ethynyl]phenoxy]ethyl]-N^4-(3-methylbutyl)-1,4-benzenedimethanamine] is 1.8-fold higher in IC50: 1200 nM for the first, 2170 nM for the second. The first is the more potent here.

`CC(COc1ccc(C#Cc2ccccc2)cc1Cl)NCc1ccc(CN)cc1` (stereo not drawn) [Compound 22, N-[2-[2-chloro-4-(phenylethynyl)phenoxy]-1-methylethyl]-1,4-benzenedimethanamine] and `Cc1ccc(C#Cc2ccc(OCC(C)NCc3ccc(CN)cc3)c(Cl)c2)cc1` (stereo not drawn) [Compound 24, N-[2-[2-chloro-4-[(4-methylphenyl)ethynyl]phenoxy]-1-methylethyl]-1,4-benzenedimethanamine] are within 1.5-fold of each other in IC50: 850 nM for the first, 700 nM for the second.

Compared with `Cc1cc(C#Cc2ccc(Cl)cc2)ccc1OCCNCc1ccc(CNCc2ccccc2)cc1` [Compound 8, N^1-[2-[4-[(4-chlorophenyl)ethynyl]-2-methylphenoxy]ethyl]-N^4-(phenylmethyl)-1,4-benzenedimethanamine], `Cc1cc(C#Cc2ccc(Cl)cc2)ccc1OCCNCc1ccc(CNCCCc2ccccc2)cc1` [Compound 10, N^1-[2-[4-[(4-chlorophenyl)ethynyl]-2-methylphenoxy]ethyl]-N^4-(3-phenylpropyl)-1,4-benzenedimethanamine] is 2.6-fold higher in IC50: 3240 nM for the first, 8340 nM for the second.

Going from `Cc1cc(C#Cc2ccc(Cl)cc2)ccc1OCCNCc1ccc(CNCCN2CCOCC2)cc1` [Compound 16, N^1-[2-[4-[(4-chlorophenyl)ethynyl]-2-methylphenoxy]ethyl]-N^4-[2-(4-morpholinyl)ethyl]-1,4-benzenedimethanamine] to `Cc1cc(C#Cc2ccc(Cl)cc2)ccc1OCCNCc1ccc(CNCCCN2CCOCC2)cc1` [Compound 15, N^1-[2-[4-[(4-chlorophenyl)ethynyl]-2-methylphenoxy]ethyl]-N^4-[3-(4-morpholinyl)propyl]-1,4-benzenedimethanamine], the IC50 falls from 2660 nM to 1610 nM (1.7-fold). The second is the more potent here.

Going from `CCCNCc1ccc(CNCCOc2ccc(C#Cc3ccc(Cl)cc3)cc2C)cc1` [Compound 3, N^1-[2-[4-[(4-chlorophenyl)ethynyl]-2-methylphenoxy]ethyl]-N^4-propyl-1,4-benzenedimethanamine] to `Cc1cc(C#Cc2ccc(Cl)cc2)ccc1OCCNCc1ccc(CNCCC(C)C)cc1` [Compound 6, N^1-[2-[4-[(4-chlorophenyl)ethynyl]-2-methylphenoxy]ethyl]-N^4-(3-methylbutyl)-1,4-benzenedimethanamine], the IC50 rises from 1380 nM to 2280 nM (1.7-fold).

Compared with `CCCNCc1ccc(CNCCOc2ccc(C#Cc3ccc(Cl)cc3)cc2)cc1` [Compound 2, N^1-[2-[4-[(4-chlorophenyl)ethynyl]phenoxy]ethyl]-N^4-propyl-1,4-benzenedimethanamine], `CN(C)CCCNCc1ccc(CNCCOc2ccc(C#Cc3ccc(Cl)cc3)cc2)cc1` [Compound 7, N^1-[2-[4-[(4-chlorophenyl)ethynyl]phenoxy]ethyl]-N^4-[3-(dimethylamino)propyl]-1,4-benzenedimethanamine] is 2.7-fold lower in IC50: 2070 nM for the first, 770 nM for the second. The second is the more potent here.

First: Cc1cc(C#Cc2ccc(Cl)cc2)ccc1OCCNCc1ccc(CNC(C)(C)C)cc1 [Compound 19, N^1-[2-[4-[(4-chlorophenyl)ethynyl]-2-methylphenoxy]ethyl]-N^4-(1,1-dimethylethyl)-1,4-benzenedimethanamine]
Second: Cc1cc(C#Cc2ccc(Cl)cc2)ccc1OCCNCc1ccc(CN)cc1 [Compound 21, N-[2-[4-[(4-chlorophenyl)ethynyl]-2-methylphenoxy]ethyl]-1,4-benzenedimethanamine]
The IC50 of the first is 1.9-fold higher: 3330 nM for the first, 1770 nM for the second. The second is the more potent here.

test system: not given; assay: not given; settings: not given

Work on `CCC(COc1ccc(C#Cc2ccc(Cl)cc2)cc1C)NCc1ccc(CN)cc1` (stereo not drawn) (as salt: HCl) [Compound 23, N-[1-[[4-[(4-chlorophenyl)ethynyl]-2-methylphenoxy]methyl]propyl]-1,4-benzenedimethanamine] yielded a melting point of 261.5 to 264 °C.

`CC(COc1ccc(C#Cc2ccc(F)cc2)cc1Cl)NCc1ccc(CN)cc1` (stereo not drawn) (as salt: HCl) [Compound 26, N-[2-[2-chloro-4-[(4-fluorophenyl)ethynyl]phenoxy]-1-methylethyl]-1,4-benzenedimethanamine] showed a melting point greater than 300 °C.
Molecule `Cc1ccc(C#Cc2ccc(OCC(C)NCc3ccc(CN)cc3)c(Cl)c2)cc1` (stereo not drawn) (as salt: HCl) [Compound 24, N-[2-[2-chloro-4-[(4-methylphenyl)ethynyl]phenoxy]-1-methylethyl]-1,4-benzenedimethanamine] has a melting point greater than 300 °C.
For `Cc1cc(C#Cc2ccc(Cl)cc2)ccc1OCC(C)NCc1ccc(CN)cc1` (stereo not drawn) (as salt: HCl) [Compound 1, N-[2-[4-[(4-chlorophenyl)ethynyl]-2-methylphenoxy]-1-methylethyl]-1,4-benzenedimethanamine], the melting point was greater than 300 °C.
`CC(COc1ccc(C#Cc2ccc(Cl)cc2)cc1Cl)NCc1ccc(CN)cc1` (stereo not drawn) (as salt: HCl) [Compound 25, N-[2-[2-chloro-4-[(4-chlorophenyl)ethynyl]phenoxy]-1-methylethyl]-1,4-benzenedimethanamine] showed a melting point greater than 300 °C.
